Legend:
Details in all cases: 72 h
[1] = tested on: Caco-2; experiment: cell viability relative to DMSO; higher = less toxic
[2] = tested on: Calu-3; experiment: as above
[3] = tested on: HepG2; experiment: as above
[4] = tested on: Vero E6; experiment: as above
[5] = tested on: U2OS; experiment: as above
[6] = tested on: Caco-2; experiment: drug sensitivity score (DSS) for viability; higher = more toxic; extreme values may be limits of the assay
[7] = tested on: Calu-3; experiment: as above
[8] = tested on: HepG2; experiment: as above
[9] = tested on: Vero E6; experiment: as above
[10] = tested on: U2OS; experiment: as above
[11] = tested on: Caco-2; experiment: relative viability EC50 (midpoint between 100% and the lowest measured viability); higher = less toxic
[12] = tested on: Calu-3; experiment: as above
[13] = tested on: HepG2; experiment: as above
[14] = tested on: Vero E6; experiment: as above
[15] = tested on: U2OS; experiment: as above

CN(C)C(=O)N[C@H]1CC[C@H](CCN2CCN(c3cccc(Cl)c3Cl)CC2)CC1 [cariprazine]
cell viability ([1]; 1 nM): 95.7%
cell viability ([1]; 10 nM): 95.2%
cell viability ([1]; 100 nM): 96.5%
cell viability ([1]; 1000 nM): 86.6%
cell viability ([1]; 10000 nM): 97.2%
cell viability ([2]; 1 nM): 102%
cell viability ([2]; 10 nM): 93%
cell viability ([2]; 100 nM): 100%
cell viability ([2]; 1000 nM): 97.9%
cell viability ([2]; 10000 nM): 106%
cell viability ([3]; 1 nM): 93%
cell viability ([3]; 10 nM): 91.1%
cell viability ([3]; 100 nM): 93.8%
cell viability ([3]; 1000 nM): 100%
cell viability ([3]; 10000 nM): 94.7%
cell viability ([4]; 1 nM): 97.3%
cell viability ([4]; 10 nM): 98.6%
cell viability ([4]; 100 nM): 96.8%
cell viability ([4]; 1000 nM): 104%
cell viability ([4]; 10000 nM): 95.3%
cell viability ([5]; 1 nM): 100%
cell viability ([5]; 10 nM): 102%
cell viability ([5]; 100 nM): 98%
cell viability ([5]; 1000 nM): 95.9%
cell viability ([5]; 10000 nM): 100%
drug sensitivity score [6]: 0
drug sensitivity score [7]: 0
drug sensitivity score [8]: 0
drug sensitivity score [9]: 0
drug sensitivity score [10]: 0
relative viability EC50 [11]: > 10 µM
relative viability EC50 [12]: > 10 µM
relative viability EC50 [13]: > 10 µM
relative viability EC50 [14]: > 10 µM
relative viability EC50 [15]: > 10 µM

N[C@@H](C(=O)O)[C@@H](OCc1ccccc1)C(=O)O.N[C@H](C(=O)O)[C@H](OCc1ccccc1)C(=O)O [TBOA-(DL)]
cell viability ([1]; 1 nM): 96.3%
cell viability ([1]; 10 nM): 94.6%
cell viability ([1]; 100 nM): 89.8%
cell viability ([1]; 1000 nM): 90.2%
cell viability ([1]; 10000 nM): 92.4%
cell viability ([2]; 1 nM): 96.7%
cell viability ([2]; 10 nM): 87.8%
cell viability ([2]; 100 nM): 92.4%
cell viability ([2]; 1000 nM): 98.4%
cell viability ([2]; 10000 nM): 109%
cell viability ([3]; 1 nM): 100%
cell viability ([3]; 10 nM): 94.1%
cell viability ([3]; 100 nM): 91.5%
cell viability ([3]; 1000 nM): 96.6%
cell viability ([3]; 10000 nM): 82.5%
cell viability ([4]; 1 nM): 104%
cell viability ([4]; 10 nM): 100%
cell viability ([4]; 100 nM): 101%
cell viability ([4]; 1000 nM): 96.6%
cell viability ([4]; 10000 nM): 98.8%
cell viability ([5]; 1 nM): 99.5%
cell viability ([5]; 10 nM): 101%
cell viability ([5]; 100 nM): 97.2%
cell viability ([5]; 1000 nM): 95%
cell viability ([5]; 10000 nM): 99.2%
drug sensitivity score [6]: 0
drug sensitivity score [7]: 0
drug sensitivity score [8]: 0.3
drug sensitivity score [9]: 0
drug sensitivity score [10]: 0
relative viability EC50 [11]: > 10 µM
relative viability EC50 [12]: > 10 µM
relative viability EC50 [13]: > 10 µM
relative viability EC50 [14]: > 10 µM
relative viability EC50 [15]: > 10 µM

COc1cc2c(cc1OC)[C@@]13CCN4CC5=CCO[C@H]6CC(=O)N2[C@H]1[C@H]6[C@H]5C[C@H]43 [brucine]
cell viability ([1]; 1 nM): 104%
cell viability ([1]; 10 nM): 89.9%
cell viability ([1]; 100 nM): 112%
cell viability ([1]; 1000 nM): 106%
cell viability ([1]; 10000 nM): 91.7%
cell viability ([2]; 1 nM): 110%
cell viability ([2]; 10 nM): 101%
cell viability ([2]; 100 nM): 91.4%
cell viability ([2]; 1000 nM): 98%
cell viability ([2]; 10000 nM): 97.1%
cell viability ([3]; 1 nM): 109%
cell viability ([3]; 10 nM): 103%
cell viability ([3]; 100 nM): 90.2%
cell viability ([3]; 1000 nM): 83.6%
cell viability ([3]; 10000 nM): 96.9%
cell viability ([4]; 1 nM): 106%
cell viability ([4]; 10 nM): 92.3%
cell viability ([4]; 100 nM): 95.2%
cell viability ([4]; 1000 nM): 99%
cell viability ([4]; 10000 nM): 98.9%
cell viability ([5]; 1 nM): 96.8%
cell viability ([5]; 10 nM): 101%
cell viability ([5]; 100 nM): 101%
cell viability ([5]; 1000 nM): 96.5%
cell viability ([5]; 10000 nM): 96.9%
drug sensitivity score [6]: 0
drug sensitivity score [7]: 0
drug sensitivity score [8]: 2.6
drug sensitivity score [9]: 0
drug sensitivity score [10]: 0
relative viability EC50 [11]: > 10 µM
relative viability EC50 [12]: > 10 µM
relative viability EC50 [13]: > 10 µM
relative viability EC50 [14]: > 10 µM
relative viability EC50 [15]: > 10 µM

CCC(=O)O[C@]1(C(=O)CCl)[C@@H](C)C[C@H]2[C@@H]3C[C@H](F)C4=CC(=O)C=C[C@]4(C)[C@@]3(F)[C@@H](O)C[C@@]21C [halobetasol-propionate]
cell viability ([1]; 1 nM): 105%
cell viability ([1]; 10 nM): 105%
cell viability ([1]; 100 nM): 104%
cell viability ([1]; 1000 nM): 108%
cell viability ([1]; 10000 nM): 99.4%
cell viability ([2]; 1 nM): 81.1%
cell viability ([2]; 10 nM): 82.1%
cell viability ([2]; 100 nM): 77.5%
cell viability ([2]; 1000 nM): 93.1%
cell viability ([2]; 10000 nM): 80%
cell viability ([3]; 1 nM): 106%
cell viability ([3]; 10 nM): 93.9%
cell viability ([3]; 100 nM): 102%
cell viability ([3]; 1000 nM): 98.1%
cell viability ([3]; 10000 nM): 111%
cell viability ([4]; 1 nM): 99.9%
cell viability ([4]; 10 nM): 101%
cell viability ([4]; 100 nM): 104%
cell viability ([4]; 1000 nM): 102%
cell viability ([4]; 10000 nM): 106%
cell viability ([5]; 1 nM): 96.7%
cell viability ([5]; 10 nM): 102%
cell viability ([5]; 100 nM): 95.8%
cell viability ([5]; 1000 nM): 101%
cell viability ([5]; 10000 nM): 93.6%
drug sensitivity score [6]: 0
drug sensitivity score [7]: 0
drug sensitivity score [8]: 0
drug sensitivity score [9]: 0
drug sensitivity score [10]: 0
relative viability EC50 [11]: > 10 µM
relative viability EC50 [12]: > 10 µM
relative viability EC50 [13]: > 10 µM
relative viability EC50 [14]: > 10 µM
relative viability EC50 [15]: > 10 µM

C[C@@H]1CC[C@@]2(NC1)O[C@H]1C[C@H]3[C@@H]4CC=C5C[C@@H](O[C@@H]6O[C@H](CO)[C@@H](O[C@@H]7O[C@@H](C)[C@H](O)[C@@H](O)[C@H]7O)[C@H](O)[C@H]6O[C@@H]6O[C@@H](C)[C@H](O)[C@@H](O)[C@H]6O)CC[C@]5(C)[C@H]4CC[C@]3(C)[C@H]1[C@@H]2C [solamargine]
cell viability ([1]; 1 nM): 92%
cell viability ([1]; 10 nM): 98%
cell viability ([1]; 100 nM): 94.6%
cell viability ([1]; 1000 nM): 96%
cell viability ([1]; 10000 nM): 0.4%
cell viability ([2]; 1 nM): 89%
cell viability ([2]; 10 nM): 96.7%
cell viability ([2]; 100 nM): 85.8%
cell viability ([2]; 1000 nM): 103%
cell viability ([2]; 10000 nM): 1%
cell viability ([3]; 1 nM): 104%
cell viability ([3]; 10 nM): 102%
cell viability ([3]; 100 nM): 102%
cell viability ([3]; 1000 nM): 89.8%
cell viability ([3]; 10000 nM): 0.2%
cell viability ([4]; 1 nM): 101%
cell viability ([4]; 10 nM): 95.2%
cell viability ([4]; 100 nM): 97.4%
cell viability ([4]; 1000 nM): 91.9%
cell viability ([4]; 10000 nM): 0%
cell viability ([5]; 1 nM): 95.7%
cell viability ([5]; 10 nM): 103%
cell viability ([5]; 100 nM): 97.5%
cell viability ([5]; 1000 nM): 99.1%
cell viability ([5]; 10000 nM): 0.4%
drug sensitivity score [6]: 6.1
drug sensitivity score [7]: 5.3
drug sensitivity score [8]: 7.2
drug sensitivity score [9]: 6.8
drug sensitivity score [10]: 5.7
relative viability EC50 [11]: 2.86 µM
relative viability EC50 [12]: 3.34 µM
relative viability EC50 [13]: 2.32 µM
relative viability EC50 [14]: 2.51 µM
relative viability EC50 [15]: 3.1 µM
